Reference: PubChem BioAssay AID248 (DTP/NCI, 2004)
“And” between values parts separate entries of the source, which are not always exact repeats. Equal values may be shown once. Toxic doses and inconclusive results are not listed. Cut-off read from the data, not from the text of the source: active = T/C of 150% or more; inactive = T/C below 125%.

System: L1210 leukemia ip in BDF1 mice, survival T/C
Test: NCI In Vivo Anticancer Drug Screen. Data for tumor model L1210 Leukemia (intraperitoneal) in B6D2F1 (BDF1) mice
Conditions: endpoint: mean survival time, higher = longer survival
Procedure, shortened: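 Value reflects the ratio of survival in compound-treated mice to survival in vehicle-treated controls, with both groups carrying the same transplanted tumor.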

[1] = dose: 100.0 mg/kg/injection, schedule: Q01DX001 (ip), vehicle: Klucel (hydroxypropylcellulose) (HPC)
[2] = dose: 100.0 mg/kg/injection, schedule: Q01DX009 (ip), vehicle: Klucel (hydroxypropylcellulose) (HPC)
[3] = dose: 100.0 mg/kg/injection, schedule: Q04DX003 (ip), vehicle: Klucel (hydroxypropylcellulose) (HPC)
[4] = dose: 200.0 mg/kg/injection, schedule: Q01DX001 (ip), vehicle: Klucel (hydroxypropylcellulose) (HPC)
[5] = dose: 200.0 mg/kg/injection, schedule: Q01DX009 (ip), vehicle: Klucel (hydroxypropylcellulose) (HPC)
[6] = dose: 200.0 mg/kg/injection, schedule: Q04DX003 (ip), vehicle: Klucel (hydroxypropylcellulose) (HPC)
[7] = dose: 400.0 mg/kg/injection, schedule: Q01DX009 (ip), vehicle: Klucel (hydroxypropylcellulose) (HPC)
[8] = dose: 400.0 mg/kg/injection, schedule: Q04DX003 (ip), vehicle: Klucel (hydroxypropylcellulose) (HPC)
[9] = dose: 100.0 mg/kg/injection, schedule: Q04DX003 (ip), vehicle: saline
[10] = dose: 200.0 mg/kg/injection, schedule: Q04DX003 (ip), vehicle: saline
[11] = dose: 400.0 mg/kg/injection, schedule: Q04DX003 (ip), vehicle: saline
[12] = dose: 50.0 mg/kg/injection, schedule: Q01DX001 (ip), vehicle: saline
[13] = dose: 100.0 mg/kg/injection, schedule: Q01DX001 (ip), vehicle: saline
[14] = dose: 200.0 mg/kg/injection, schedule: Q01DX001 (ip), vehicle: saline
[15] = dose: 400.0 mg/kg/injection, schedule: Q01DX001 (ip), vehicle: saline
[16] = dose: 100.0 mg/kg/injection, schedule: Q04DX002 (ip), vehicle: Klucel (hydroxypropylcellulose) (HPC)
[17] = dose: 200.0 mg/kg/injection, schedule: Q04DX002 (ip), vehicle: Klucel (hydroxypropylcellulose) (HPC)
[18] = dose: 400.0 mg/kg/injection, schedule: Q04DX002 (ip), vehicle: Klucel (hydroxypropylcellulose) (HPC)
[19] = dose: 50.0 mg/kg/injection, schedule: Q04DX003 (ip), vehicle: saline
[20] = dose: 50.0 mg/kg/injection, schedule: Q01DX001 (ip), vehicle: Klucel (hydroxypropylcellulose) (HPC)
[21] = dose: 100.0 mg/kg/injection, schedule: Q01DX001 (ip), vehicle: carboxymethylcellulose (CMC)
[22] = dose: 200.0 mg/kg/injection, schedule: Q01DX001 (ip), vehicle: carboxymethylcellulose (CMC)
[23] = dose: 400.0 mg/kg/injection, schedule: Q01DX001 (ip), vehicle: carboxymethylcellulose (CMC)

Measured: T/C

CS(=O)(=O)OCCN(CCOS(C)(=O)=O)c1ccc(N=O)c(Cl)c1
inactive: dose: 0.08 mg/kg/injection, schedule: Q01DX015 (ip), vehicle: saline 97 % of control | dose: 0.14 mg/kg/injection, schedule: Q01DX015 (ip), vehicle: saline 103 % of control | dose: 0.22 mg/kg/injection, schedule: Q01DX001 (ip), vehicle: saline 114 % of control | dose: 0.23 mg/kg/injection, schedule: Q01DX015 (ip), vehicle: saline 114 % of control | dose: 0.5 mg/kg/injection, schedule: Q01DX001 (ip), vehicle: saline 122 % of control | dose: 1.0 mg/kg/injection, schedule: Q01DX015 (ip), vehicle: saline 124 % of control | dose: 2.0 mg/kg/injection, schedule: Q01DX015 (ip), vehicle: saline 97 % of control | dose: 4.0 mg/kg/injection, schedule: Q01DX001 (ip), vehicle: saline 117 % of control | dose: 4.5 mg/kg/injection, schedule: Q01DX001 (ip), vehicle: saline 86 % of control

Clc1ccc(/C=C2\c3cc(Cl)ccc3-c3c(Cl)cc(Cl)cc32)cc1
inactive: [1] 91 % of control | [2] 91 % of control | [3] 86 % of control | [4] 93 % of control | [5] 90 % of control | [6] 91 % of control | dose: 400.0 mg/kg/injection, schedule: Q01DX001 (ip), vehicle: Klucel (hydroxypropylcellulose) (HPC) 95 % of control | [7] 86 % of control | [8] 93 % of control

Cc1cc(/C=C\c2ccccc2Cl)nc2cc(Cl)ccc12
inactive: [9] 102 % of control | [10] 98 % of control | [11] 102 % of control

O=C(Cc1ccc2ccccc2c1)c1c[nH]c2ccccc12
inactive: [12] 102 % of control | [13] 102 % of control | [14] 98 % of control | [15] 93 % of control

Cn1cccc1/C=N/NC(N)=O
inactive: [16] 104 % of control | [17] 104 % of control | [18] 98 % of control

C/C(=N\[N+](C)(C)C)c1ccc(C)cc1
inactive: dose: 12.5 mg/kg/injection, schedule: Q01DX001 (ip), vehicle: saline 112 % of control | dose: 25.0 mg/kg/injection, schedule: Q01DX001 (ip), vehicle: saline 104 % of control | dose: 25.0 mg/kg/injection, schedule: Q04DX003 (ip), vehicle: saline 107 % of control | [12] 108 % of control | [19] 100 % of control | [13] 101 % of control | [9] 105 % of control

Cc1nnc(NS(=O)(=O)c2ccc(N=Nc3c(N)[nH]c(=S)[nH]c3=O)cc2)s1
inactive: [13] 100 % of control | [14] 100 % of control | [15] 100 % of control

CCCCC(=O)N(CCCC)CCCC
inactive: dose: 100.0 mg/kg/injection, schedule: Q04DX002 (ip), vehicle: saline 107 % of control | dose: 200.0 mg/kg/injection, schedule: Q04DX002 (ip), vehicle: saline 114 % of control | dose: 400.0 mg/kg/injection, schedule: Q04DX002 (ip), vehicle: saline 93 % of control

COc1ccccc1-n1c(O)c(N=Nc2ccc(Br)cc2)c(=O)n(-c2ccc(I)cc2)c1=S
inactive: [20] 102 % of control | [1] 112 % of control | [4] 102 % of control

ClC1OC(Cl)(Cl)C(Cl)(Cl)OC1(Cl)Cl (stereo not given)
inactive: [2] 103 % of control | [3] 107 % of control | [5] 93 % of control | [6] 94 % of control | [7] 101 % of control | [8] 96 % of control

O=C(Nc1ccc(Cl)c(Cl)c1)Nc1ccc(Cl)cc1O
inactive: [21] 100 % of control | [22] 96 % of control | [23] 96 % of control

NNc1c(F)c(F)c(Br)c(F)c1F
inactive: dose: 25.6 mg/kg/injection, schedule: Q04DX002 (ip), vehicle: saline with Tween-80 106 % of control | dose: 64.0 mg/kg/injection, schedule: Q04DX002 (ip), vehicle: saline with Tween-80 95 % of control | dose: 160.0 mg/kg/injection, schedule: Q04DX002 (ip), vehicle: saline with Tween-80 106 % of control | dose: 400.0 mg/kg/injection, schedule: Q04DX002 (ip), vehicle: saline with Tween-80 95 % of control

COc1ccccc1NC(=O)O/N=C/c1ccccn1
inactive: dose: 100.0 mg/kg/injection, schedule: Q04DX003 (ip), vehicle: other 99 % of control | dose: 200.0 mg/kg/injection, schedule: Q04DX003 (ip), vehicle: other 90 % of control | dose: 400.0 mg/kg/injection, schedule: Q04DX003 (ip), vehicle: other 103 % of control

Clc1cc(Cl)c(/C=C/c2c(Cl)cc(Cl)cc2Cl)c(Cl)c1
inactive: [3] 98 % of control | [6] 93 % of control | [8] 95 % of control

Cc1cc(C)cc(-n2cccc2C(=O)O)c1
inactive: [16] 89 % of control | [17] 86 % of control | [18] 96 % of control

COC1OC2COC(c3ccccc3)OC2C(OC(C)=O)C1OS(=O)(=O)c1ccc(C)cc1 (stereo not given)
inactive: [16] 109 % of control | [17] 88 % of control | [18] 109 % of control

Cc1ccc2nc(C)ccc2c1
inactive: [20] 101 % of control | [1] 109 % of control | [4] 107 % of control

Cc1cccc(C2CCCCC2OS(C)(=O)=O)c1 (stereo not given)
inactive: [21] 101 % of control | [22] 108 % of control | [23] 95 % of control

CC(C)N(C(=O)COc1ccc(Cl)cc1Cl)c1ccccc1
inactive: dose: 100.0 mg/kg/injection, schedule: Q01DX009 (ip), vehicle: saline with Tween-80 102 % of control | dose: 100.0 mg/kg/injection, schedule: Q04DX003 (ip), vehicle: saline with Tween-80 96 % of control | dose: 200.0 mg/kg/injection, schedule: Q01DX009 (ip), vehicle: saline with Tween-80 106 % of control | dose: 200.0 mg/kg/injection, schedule: Q04DX003 (ip), vehicle: saline with Tween-80 96 % of control | dose: 400.0 mg/kg/injection, schedule: Q01DX009 (ip), vehicle: saline with Tween-80 124 % of control | dose: 400.0 mg/kg/injection, schedule: Q04DX003 (ip), vehicle: saline with Tween-80 91 % of control

CCc1ccccc1NC(=S)Nc1ccccc1
inactive: [16] 105 % of control | [17] 105 % of control | [18] 105 % of control

COc1ccc(/C=N\NC(=O)CCCC(=O)N/N=C/c2ccc(OC)c(O)c2)cc1O
inactive: [12] 100 % of control | [13] 100 % of control | [14] 100 % of control | [15] 103 % of control

CCCCCCC/C=N\N=C(N)N
inactive: dose: 15.0 mg/kg/injection, schedule: Q01DX Z (ip), vehicle: carboxymethylcellulose (CMC) 97 % of control | dose: 30.0 mg/kg/injection, schedule: Q01DX Z (ip), vehicle: carboxymethylcellulose (CMC) 97 % of control | dose: 60.0 mg/kg/injection, schedule: Q01DX Z (ip), vehicle: carboxymethylcellulose (CMC) 101 % of control

Cc1ccc([N+](=O)[O-])cc1NC(=O)Nc1ccc(CCO)cc1
inactive: [2] 90 % of control | [5] 93 % of control

CC(C)CC[NH-].CC(C)CC[NH-].[Cl][Pt+2][Cl]
inactive: [19] 100 % of control and 105 % of control | [9] 92 % of control and 105 % of control | [10] 103 % of control and 117 % of control | [11] 97 % of control and 88 % of control

Cc1nc(N)[nH]c(=O)c1CCCN(c1ccccc1)S(=O)(=O)c1ccc([N+](=O)[O-])cc1
inactive: dose: 6.25 mg/kg/injection, schedule: Q01DX001 (ip), vehicle: saline with Tween-80 104 % of control | dose: 12.5 mg/kg/injection, schedule: Q01DX001 (ip), vehicle: saline with Tween-80 100 % of control | dose: 25.0 mg/kg/injection, schedule: Q01DX001 (ip), vehicle: saline with Tween-80 98 % of control

CC1CN1C(=O)Nc1ccc(Cl)cc1 (stereo not given)
inactive: dose: 25.0 mg/kg/injection, schedule: Q04DX002 (ip), vehicle: other 116 % of control | dose: 50.0 mg/kg/injection, schedule: Q04DX002 (ip), vehicle: other 100 % of control | dose: 100.0 mg/kg/injection, schedule: Q04DX002 (ip), vehicle: other 97 % of control and 91 % of control

O=C(O)c1cccnn1
inactive: [13] 104 % of control | [14] 97 % of control
